Experimental data reported in patent US10681908B2, “Molecules having pesticidal utility, and intermediates, compositions, and processes, related thereto” (Dow AgroSciences LLC, priority 2016, dated 2020).

How the values were obtained:
[1] = system: Cabbage Looper (Trichoplusia ni, TRIPNI); assay: Bioassay on Cabbage Looper (CL), 128-well diet tray assay; format: in vivo; details: for mortality at 50 µg/cm2: 168 h, 50 μg/cm^2 on artificial diet, second instar larvae, five to seven days, 25° C., read-out: CL % Control (or Mortality) rating
Procedure: (§1) Example A: Bioassays on Beet Armyworm (Spodoptera Exigua, LAPHEG) (“BAW”), Corn Earworm (Helicoverpa zea, HELIZE) (“CEW”), and Cabbage Looper (Trichoplusia ni, TRIPNI) (“CL”)
(§2) Certain molecules disclosed in this document were tested against BAW, CEW, and CL using procedures described in the following examples. In the reporting of the results, the “BAW, CEW, & CL Rating Table” was used (See Table Section).
Bioassays on CL were conducted using a 128-well diet tray assay. One to five second instar CL larvae were placed in each well (3 mL) of the diet tray that had been previously filled with 1 mL of artificial diet to which 50 μg/cm^2 of the test molecule (dissolved in 50 μL of 90:10 acetone-water mixture) had been applied (to each of eight wells) and then allowed to dry. Trays were covered with a clear self-adhesive cover and held at 25° C., 14:10 light-dark for five to seven days. Percent mortality was recorded for the larvae in each well; activity in the eight wells was then averaged. The results are indicated in the table entitled “Table ABC: Biological Results” (See Table Section).
(§3) Bioassays on BAW and CL were conducted according to the procedures outlined in Example A: Bioassays on Beet Armyworm (“BAW”) and Cabbage Looper (“CL”) using the indicated concentrations.

[2] = system: Beet Armyworm (Spodoptera exigua, LAPHEG); assay: Bioassay on Beet Armyworm (BAW), 128-well diet tray assay; format: in vivo; details: for mortality at 50 µg/cm2: 168 h, 50 μg/cm^2 on artificial diet, second instar larvae, five to seven days, 25° C., read-out: BAW % Control (or Mortality) rating
Procedure: as §1, §2
Bioassays on BAW were conducted using a 128-well diet tray assay. One to five second instar BAW larvae were placed in each well (3 mL) of the diet tray that had been previously filled with 1 mL of artificial diet to which 50 μg/cm^2 of the test molecule (dissolved in 50 μL of 90:10 acetone-water mixture) had been applied (to each of eight wells) and then allowed to dry. Trays were covered with a clear self-adhesive cover and held at 25° C., 14:10 light-dark for five to seven days. Percent mortality was recorded for the larvae in each well; activity in the eight wells was then averaged. The results are indicated in the table entitled “Table ABC: Biological Results” (See Table Section).
as §3

| SMILES | mortality at 50 µg/cm2 [1] | mortality at 50 µg/cm2 [2] | other results |
| --- | --- | --- | --- |
| C[C@H](CS(=O)(=O)CCF)NC(=O)c1ccc(/C(F)=C/C(c2cc(Cl)c(Cl)c(Cl)c2)C(F)(F)F)cc1C(F)(F)F (stereo partly drawn) [F85, N—((R)-1-((2-Fluoroethyl)sulfonyl)propan-2-yl)-4-((Z)-1,4,4,4-tetrafluoro-3-(3,4,5-trichlorophenyl)but-1-en-1-yl)-2-(trifluoromethyl)benzamide] | 50 to 100% | 50 to 100% |  |
| C[C@H](CSCC(F)(F)F)NC(=O)c1ccc(/C(F)=C/C(c2ccc(Br)c(Br)c2)C(F)(F)F)cc1C(F)(F)F (stereo partly shown) [F62] | 50 to 100% | 50 to 100% |  |
| CCSC[C@@H](C)NC(=O)c1ccc(/C(F)=C/C(c2cc(Cl)c(F)c(Cl)c2)C(F)(F)F)cc1C(F)(F)F (stereo partly drawn) [F41, 4-((Z)-3-(3,5-Dichloro-4-fluorophenyl)-1,4,4,4-tetrafluorobut-1-en-1-yl)-N—((R)-1-(ethylthio)propan-2-yl)-2-(trifluoromethyl)benzamide] | 50 to 100% | 50 to 100% |  |
| C[C@H](C[S+]([O-])CC(F)(F)F)NC(=O)c1ccc(/C(F)=C/C(c2cc(Cl)c(Cl)c(Cl)c2)C(F)(F)F)cc1Cl (stereo partly drawn) [F12, 2-Chloro-4-((Z)-1,4,4,4-tetrafluoro-3-(3,4,5-trichlorophenyl)but-1-en-1-yl)-N-((2R)-1-((2,2,2-trifluoroethyl)sulfinyl)propan-2-yl)benzamide] | 50 to 100% | 50 to 100% |  |
| Cc1cc(/C(F)=C/C(c2cc(Cl)c(Cl)c(Cl)c2)C(F)(F)F)ccc1C(=O)N[C@H](C)CS(=O)(=O)CC(F)(F)F (stereo partly drawn) [F6, 2-Methyl-4-((Z)-1,4,4,4-tetrafluoro-3-(3,4,5-trichlorophenyl)but-1-en-1-yl)-N—((R)-1-((2,2,2-trifluoroethyl)sulfonyl)propan-2-yl)benzamide] | 50 to 100% | 50 to 100% |  |
| C[C@H](CS(=O)(=O)CC(F)(F)F)NC(=O)c1ccc(/C(F)=C/C(c2ccc(Cl)c(Cl)c2)C(F)(F)F)cc1Br (stereo partly shown) [F67] | 50 to 100% | 50 to 100% |  |
| CCS(=O)(=O)C[C@@H](C)NC(=O)c1ccc(/C(F)=C/C(c2cc(Cl)c(Br)c(Cl)c2)C(F)(F)F)cc1C(F)(F)F (stereo partly drawn) [F63, 4-((Z)-3-(4-Bromo-3,5-chlorophenyl)-1,4,4,4-tetrafluorobut-1-en-1-yl)-N—((R)-1-(ethylsulfonyl)propan-2-yl)-2-(trifluoromethyl)benzamide] | 50 to 100% | 50 to 100% |  |
| C[C@H](CS(=O)(=O)CC(F)(F)F)NC(=O)c1ccc(/C(F)=C/C(c2cc(Cl)c(Cl)c(Br)c2)C(F)(F)F)cc1C(F)(F)F (stereo partly drawn) [F80, 4-((Z)-3-(3-Bromo-4,5-dichlorophenyl)-1,4,4,4-tetrafluorobut-1-en-1-yl)-N—((R)-1-((2,2,2-trifluoroethyl)sulfonyl)propan-2-yl)-2-(trifluoromethyl)benzamide] | 50 to 100% | 50 to 100% |  |
| C[C@H](C[S+]([O-])CC(F)(F)F)NC(=O)c1ccc(/C(F)=C/C(c2cc(Cl)c(Cl)c(Cl)c2)C(F)(F)F)cc1Br (stereo partly drawn) [F9, 2-Bromo-4-((Z)-1,4,4,4-tetrafluoro-3-(3,4,5-trichlorophenyl)but-1-en-1-yl)-N-((2R)-1-((2,2,2-trifluoroethyl)sulfinyl)propan-2-yl)benzamide] | 50 to 100% | 50 to 100% |  |
| C[C@H](CS(=O)(=O)CC(F)(F)F)NC(=O)c1ccc(/C(F)=C/C(c2ccc(Cl)c(OC(F)(F)F)c2)C(F)(F)F)cc1C(F)(F)F (stereo partly drawn) [F127, 4-((Z)-3-(4-Chloro-3-(trifluoromethoxy)phenyl)-1,4,4,4-tetrafluorobut-1-en-1-yl)-N—((R)-1-((2,2,2-trifluoroethyl)sulfonyl)propan-2-yl)-2-(trifluoromethyl)benzamide] | 50 to 100% | 50 to 100% |  |
| C[C@H](CS(=O)(=O)CC(F)(F)F)NC(=O)c1ccc(/C(F)=C/C(c2cc(F)c(F)c(F)c2)C(F)(F)F)cc1C(F)(F)F (stereo partly drawn) [F133, 4-((Z)-1,4,4,4-Tetrafluoro-3-(3,4,5-trifluorophenyl)but-1-en-1-yl)-N—((R)-1-((2,2,2-trifluoroethyl)sulfonyl)propan-2-yl)-2-(trifluoromethyl)benzamide] | 50 to 100% | 50 to 100% |  |
| CCC(F)(F)C(/C=C(\F)c1ccc(C(=O)N[C@H](C)CS(=O)(=O)CC(F)(F)F)c(C(F)(F)F)c1)c1cc(Cl)c(Cl)c(Cl)c1 (stereo partly drawn) [F38, 4-((Z)-1,4,4-Trifluoro-3-(3,4,5-trichlorophenyl)hex-1-en-1-yl)-N—((R)-1-((2,2,2-trifluoroethyl)sulfonyl)propan-2-yl)-2-(trifluoromethyl)benzamide] | 50 to 100% | 50 to 100% |  |
| CSC(C)CNC(=O)c1ccc(/C(F)=C/C(c2cc(Cl)c(Cl)c(Cl)c2)C(F)(F)F)cc1C(F)(F)F (stereo not shown) [F89, (Z)—N-(2-(Methylthio)propyl)-4-(1,4,4,4-tetrafluoro-3-(3,4,5-trichlorophenyl)but-1-en-1-yl)-2-(trifluoromethyl)benzamide] | 50 to 100% | 50 to 100% |  |
| C[C@H](CS(=O)(=O)CC(F)(F)F)NC(=O)c1ccc(/C(F)=C/C(c2cc(F)cc(Cl)c2)C(F)(F)F)cc1C(F)(F)F (stereo partly drawn) [F126, 4-((Z)-3-(3-Chloro-5-fluorophenyl)-1,4,4,4-tetrafluorobut-1-en-1-yl)-N—((R)-1-((2,2,2-trifluoroethyl)sulfonyl)propan-2-yl)-2-(trifluoromethyl)benzamide] | 50 to 100% | 50 to 100% |  |
| C[C@H](CS(=O)(=O)CC(F)(F)F)NC(=O)c1ccc(/C(F)=C/C(c2cc(Cl)c(Cl)c(Cl)c2)C(C)(F)F)cc1 (stereo partly drawn) [FC1, 4-((Z)-1,4,4-Trifluoro-3-(3,4,5-trichlorophenyl)pent-1-en-1-yl)-N—((R)-1-((2,2,2-trifluoroethyl)sulfonyl)propan-2-yl)benzamide] |  |  | mortality at 0.05 µg/cm2 ([1]; 0.05 μg/cm^2, read-out: CL Percent control (or mortality)): 0%; mortality at 0.5 µg/cm2 ([1]; 0.5 μg/cm^2, read-out: CL Percent control (or mortality)): 81%; mortality at 5 µg/cm2 ([1]; 5 μg/cm^2, read-out: CL Percent control (or mortality)): 100%; mortality at 0.05 µg/cm2 ([2]; 0.05 μg/cm^2, read-out: BAW Percent control (or mortality)): 0%; mortality at 0.5 µg/cm2 ([2]; 0.5 μg/cm^2, read-out: BAW Percent control (or mortality)): 20%; mortality at 5 µg/cm2 ([2]; 5 μg/cm^2, read-out: BAW Percent control (or mortality)): 100% |
| C[C@H](CSCC#N)NC(=O)c1ccc(/C(F)=C/C(c2cc(Cl)c(Cl)c(Cl)c2)C(F)(F)F)cc1C(F)(F)F (stereo partly drawn) [F83, N—((R)-1-((Cyanomethyl)thio)propan-2-yl)-4-((Z)-1,4,4,4-tetrafluoro-3-(3,4,5-trichlorophenyl)but-1-en-1-yl)-2-(trifluoromethyl)benzamide] | 50 to 100% | 50 to 100% |  |
| Cc1cc(C(/C=C(\F)c2ccc(C(=O)N[C@H](C)CS(=O)(=O)CC(F)(F)F)c(C(F)(F)F)c2)C(F)(F)F)ccc1Cl (stereo partly drawn) [PF8, 4-((Z)-3-(4-Chloro-3-methylphenyl)-1,4,4,4-tetrafluorobut-1-en-1-yl)-N—((R)-1-((2,2,2-trifluoroethyl)sulfonyl)propan-2-yl)-2-(trifluoromethyl)benzamide] | 50 to 100% | 50 to 100% |  |
| C[C@H](CSCC(F)(F)F)NC(=O)c1ccc(/C(F)=C/C(c2cc(Cl)c(Cl)c(Cl)c2)C(C)(F)F)cc1C(F)(F)F (stereo partly drawn) [F15, 4-((Z)-1,4,4-Trifluoro-3-(3,4,5-trichlorophenyl)pent-1-en-1-yl)-N—((R)-1-((2,2,2-trifluoroethyl)thio)propan-2-yl)-2-(trifluoromethyl)benzamide] | 50 to 100% | 50 to 100% |  |
| O=C(NCCSCC(F)(F)F)c1ccc(/C(F)=C/C(c2cc(Cl)c(Cl)c(Cl)c2)C(F)(F)F)cc1C(F)(F)F (stereo not shown) [F51, (Z)-4-(1,4,4,4-tetrafluoro-3-(3,4,5-trichlorophenyl)but-1-en-1-yl)-N-(2-((2,2,2-trifluoroethyl)thio)ethyl)-2-(trifluoromethyl)benzamide] | 50 to 100% | 50 to 100% |  |
| CC(CNC(=O)c1ccc(/C(F)=C/C(c2cc(Cl)c(Cl)c(Cl)c2)C(F)(F)F)cc1C(F)(F)F)S(C)(=O)=O (stereo not shown) [F124, (Z)—N-(2-(methylsulfonyl)propyl)-4-(1,4,4,4-tetrafluoro-3-(3,4,5-trichlorophenyl)but-1-en-1-yl)-2-(trifluoromethyl)benzamide] | 50 to 100% | 50 to 100% |  |
| C[C@H](CS(=O)(=O)CC(F)(F)F)NC(=O)c1ccc(/C(F)=C/C(c2ccc(F)c(C(F)(F)F)c2)C(F)(F)F)cc1C(F)(F)F (stereo partly drawn) [F77, 4-((Z)-1,4,4,4-Tetrafluoro-3-(4-fluoro-3-(trifluoromethyl)phenyl)but-1-en-1-yl)-N—((R)-1-((2,2,2-trifluoroethyl)sulfonyl)propan-2-yl)-2-(trifluoromethyl)benzamide] | 50 to 100% | 50 to 100% |  |
